Consider one compound from patent publication US11000033B2, “Ketone or oxime compound, and herbicide” (NISSAN CHEMICAL CORPORATION, priority 2014, dated 2021).

Each structure is given as a SMILES string.

Type in all cases: in vivo
In data set [1] the test system is Amaranthus retroflexus. The experiment in a line: Test Example 4: herbicidal effect by soil treatment (symbol N). Conditions: application herbicide amount 320 g/ha. In short, it runs like this:
(§1)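 Seeds were sown in sterilized diluvial soil, covered with about 1.5 cm of soil, and the soil surface was sprayed with a water-diluted emulsion of the compound at a predetermined rate. Plants grew in a greenhouse at 25° C. to 30° C.; effects were scored visually 3 weeks after application.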

The subject of another data set is Abutilon theophrasti. The experiment in a line: Test Example 4: herbicidal effect by soil treatment (symbol M). Particulars: application herbicide amount 320 g/ha. A digest of the protocol:
as §1

Another data set concerns Lolium multiflorum Lam. The experiment in a line: Test Example 4: herbicidal effect by soil treatment (symbol K). Conditions: application herbicide amount 320 g/ha. A digest of the protocol: as §1
Data set [2] has as its system Setaria viridis. The experiment in a line: Test Example 4: herbicidal effect by soil treatment (symbol G). Conditions: application herbicide amount 320 g/ha. In short, it runs like this: as §1
In data set [3] the test system is soybean. The experiment in a line: Test Example 4: effect on crop by soil treatment (symbol d). Conditions: application herbicide amount 320 g/ha. In short, it runs like this:
(§2)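 Crop seeds, among them rice, wheat, beet and rapeseed, were sown in sterilized diluvial soil and covered with about 1.5 cm of soil. Boxes were kept in a greenhouse at 25° C. to 30° C. for plant growth.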

In another data set the test system is Stellaria media. The experiment in a line: Test Example 4: herbicidal effect by soil treatment (symbol P). Conditions: application herbicide amount 320 g/ha. In short, it runs like this: as §1
In another data set the test system is Digitaria ciliaris. The experiment in a line: Test Example 5: herbicidal effect by foliage application, plastic box (symbol F). Particulars: 320 g/ha, 3 weeks after application. In short, it runs like this:
(§3)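 After sowing into sterilized diluvial soil and growing two weeks under glass at 25° C. to 30° C., seedlings receive a uniform foliar spray of diluted emulsion. Damage is judged visually three weeks on.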

For another data set, the system named is Galium spurium. The experiment in a line: Test Example 4: herbicidal effect by soil treatment (symbol Q). Particulars: application herbicide amount 320 g/ha. A digest of the protocol:
as §1

Data set [4] has as its system wheat. The experiment in a line: Test Example 5: effect on crop by foliage application, plastic box (symbol e). Conditions: 320 g/ha, 3 weeks after application. A digest of the protocol: (§4)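 Crop and weed seeds sown in spots in sterilized diluvial soil in plastic boxes and covered with about 1.5 cm soil. Plants raised in a greenhouse at 25° C. to 30° C. for foliar application.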

The next data set relates to Avena fatua. The experiment in a line: Test Example 4: herbicidal effect by soil treatment (symbol I). Conditions: application herbicide amount 320 g/ha. A digest of the protocol: as §1
For another data set, the system named is rice plant. The experiment in a line: Test Example 5: effect on crop by foliage application, plastic box (symbol b). Particulars: 320 g/ha, 3 weeks after application. In short, it runs like this:
as §4

The subject of the next data set is rice. The experiment in a line: Test Example 4: effect on crop by soil treatment (symbol b). Particulars: application herbicide amount 320 g/ha. A digest of the protocol: as §2
The test system of the next data set is corn. The experiment in a line: Test Example 4: effect on crop by soil treatment (symbol c). Particulars: application herbicide amount 320 g/ha. In short, it runs like this:
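Steps: fill box with sterilized diluvial soil; sow seed spot-like; cover with ~1.5 cm soil; grow in greenhouse (25° C. to 30° C.).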

The subject of data set [5] is Amaranthus retroflexus. The experiment in a line: Test Example 5: herbicidal effect by foliage application, plastic box (symbol N). Particulars: 320 g/ha, 3 weeks after application. In short, it runs like this:
as §3

The subject of data set [6] is Echinochloa crus-galli var. crus-galli. The experiment in a line: Test Example 5: herbicidal effect by foliage application, plastic box (symbol H). Conditions: 320 g/ha, 3 weeks after application. In short, it runs like this:
as §3

In another data set the test system is Scirpus juncoides. The experiment in a line: Test Example 1: herbicidal activity, application before weed generation in submerged conditions (symbol B). Particulars: application herbicide amount 320 g/ha. In short, it runs like this: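 Paddy pre-emergence test. Formulated emulsion, water-diluted to a predetermined rate, is applied to floodwater on sowing day; rice transplanted at 2.5 leaves. Effect read at 3 weeks on a 0–5 herbicidal-ratio scale.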

Data set [7] relates to Alopecurus myosuroides. The experiment in a line: Test Example 4: herbicidal effect by soil treatment (symbol J). Conditions: application herbicide amount 320 g/ha. A digest of the protocol:
as §1

Data set [8] concerns Setaria viridis. The experiment in a line: Test Example 5: herbicidal effect by foliage application, plastic box (symbol G). Conditions: 320 g/ha, 3 weeks after application. In short, it runs like this:
as §3

Data set [9] has as its system soybean. The experiment in a line: Test Example 5: effect on crop by foliage application, plastic box (symbol d). Particulars: 320 g/ha, 3 weeks after application. In short, it runs like this: as §4
Data set [10] has as its system Alopecurus myosuroides. The experiment in a line: Test Example 5: herbicidal effect by foliage application, plastic box (symbol J). Particulars: 320 g/ha, 3 weeks after application. A digest of the protocol:
as §3

Data set [11] has as its system wheat. The experiment in a line: Test Example 4: effect on crop by soil treatment (symbol e). Conditions: application herbicide amount 320 g/ha. A digest of the protocol:
as §2

Turning to `CC(=O)CC1CC(O)=C(c2c(C)cc(-c3ccccn3)cc2C)C1=O` (stereo not drawn) [7-012], the “Herbicidal effect grade, N: Amaranthus retroflexus” value in the data set on Amaranthus retroflexus [1] was 0 (Herbicidal ratio of 5% or lower (almost no effect)). The “Herbicidal effect grade, M: Abutilon theophrasti” value with Abutilon theophrasti is reported as 0 (Herbicidal ratio of 5% or lower (almost no effect)). The “Herbicidal effect grade, K: Lolium multiflorum Lam.” value in the data set on Lolium multiflorum Lam. was 2 (Herbicidal ratio of 20% or higher and lower than 40%). Besides, in the data set with Setaria viridis [2], the “Herbicidal effect grade, G: Setaria viridis” value is 5 (Herbicidal ratio of 90% or more (almost completely withered)). The “Effect on crop grade, d: soybean” value with soybean [3] is reported as 0 (Herbicidal ratio of 5% or lower (almost no effect)). In the data set with Stellaria media, the “Herbicidal effect grade, P: Stellaria media” value is listed as 0 (Herbicidal ratio of 5% or lower (almost no effect)). In addition, in the data set on Digitaria ciliaris, the “F: Digitaria ciliaris, herbicidal effect (criteria of Test Example 1)” value is on record as 5 (Herbicidal ratio of 90% or more (almost completely withered)). Moreover, the “Herbicidal effect grade, Q: Galium spurium” value in the data set on Galium spurium is 0 (Herbicidal ratio of 5% or lower (almost no effect)). Besides, the “e: wheat, effect on crop (criteria of Test Example 1)” value in the data set on wheat [4] was 1 (Herbicidal ratio of 5% or higher and lower than 20%). The “Herbicidal effect grade, I: Avena fatua” value with Avena fatua is on record as 0 (Herbicidal ratio of 5% or lower (almost no effect)). In the data set with rice plant, the “b: directly sowed rice plant, effect on crop (criteria of Test Example 1)” value is given as 5 (Herbicidal ratio of 90% or more (almost completely withered)). Moreover, in the data set on rice, the “Effect on crop grade, b: directly sowed rice plant” value is recorded as 5 (Herbicidal ratio of 90% or more (almost completely withered)). The “Effect on crop grade, c: corn” value in the data set on corn is 0 (Herbicidal ratio of 5% or lower (almost no effect)). In the data set on Amaranthus retroflexus [5], the “N: Amaranthus retroflexus, herbicidal effect (criteria of Test Example 1)” value is listed as 0 (Herbicidal ratio of 5% or lower (almost no effect)). In data set [6], the “H: Echinochloa crus-galli var. crus-galli, herbicidal effect (criteria of Test Example 1)” value is given as 5 (Herbicidal ratio of 90% or more (almost completely withered)). Also, the “Herbicidal effect grade, B: Scirpus juncoides” value in the data set with Scirpus juncoides is on record as 0 (Herbicidal ratio of 5% or lower (almost no effect)). Further, the “Herbicidal effect grade, J: Alopecurus myosuroides” value in the data set with Alopecurus myosuroides [7] was 2 (Herbicidal ratio of 20% or higher and lower than 40%). In the data set on Setaria viridis [8], the “G: Setaria viridis, herbicidal effect (criteria of Test Example 1)” value is on record as 5 (Herbicidal ratio of 90% or more (almost completely withered)). Further, in the data set with soybean [9], the “d: soybean, effect on crop (criteria of Test Example 1)” value was 2 (Herbicidal ratio of 20% or higher and lower than 40%). In the data set with Alopecurus myosuroides [10], the “J: Alopecurus myosuroides, herbicidal effect (criteria of Test Example 1)” value was 3 (Herbicidal ratio of 40% or higher and lower than 70%). Also, the “Effect on crop grade, e: wheat” value with wheat [11] is 0 (Herbicidal ratio of 5% or lower (almost no effect)).
